Experimental data from patent US20090162314A1, “Magnesium-Containing Polymers for the Treatment of Hyperphosphatemia” (priority 2005, published 2009).

System: urinary phosphate
Experiment: In vivo phosphate binding: urinary phosphate levels in rats fed test compound in diet
Design: species or system Sprague Dawley (SD) rats
Conditions: SD rats, urine days 5 and 6, cellulose control
Experimental: House male Sprague Dawley (SD) rats were used for the experiments. The rats were placed singly in wire-bottom cages, fed with Purina 5002 diet, and allowed to acclimate for at least 5 days prior to experimental use.
To establish baseline phosphorus excretion, the rats were placed in metabolic cages for 48 hours. Their urine was collected and its phosphorus content analyzed with a Hitachi analyzer to determine phosphorus excretion in mg/day. Any rats with outlying values were excluded; and the remainder of the rats was distributed into groups.
Purina 5002 was used as the standard diet. The compound being tested was mixed with Purina 5002 to result in a final concentration by weight as noted in the table. Cellulose at 0.5% by weight was used as a negative control. For each rat, 200 g of diet was prepared.
Each rat was weighed and placed on the standard diet. After 4 days the standard diet was replaced with the treatment diet (or control diet for the control group). On days 5 and 6, urine samples from the rats at 24 hours (+/−30 minutes) were collected and analyzed. The test rats were again weighed, and any weight loss or gain was calculated. Any remaining food was also weighed to calculate the amount of food consumed per day. A change in phosphorus excretion relative to baseline and cellulose negative control was calculated using Excel program.

Structure (SMILES)	% Urinary Phosphate Relative to that of Control Animals (2.38 % of diet) [%]	% Urinary Phosphate Relative to that of Control Animals (0.20 % of diet) [%]	% Urinary Phosphate Relative to that of Control Animals (0.25 % of diet) [%]	% Urinary Phosphate Relative to that of Control Animals (0.30 % of diet) [%]	% Urinary Phosphate Relative to that of Control Animals (0.40 % of diet) [%]	% Urinary Phosphate Relative to that of Control Animals (1.00 % of diet) [%]
[Cl-].[Cl-].[Mg+2] [MgCl2]	57.0					
[Mg+2].[O-2] [MgO]		61.6	69.3	54.8	26.1	3.6
